*1 amine or outer side, *2 acyl side, *3 side chain or, on linkers, in order; H or OH if unused. Where a SMILES comes first, the peptide text is derived from it. Bridges are numbered along the chain shown (N, C = ends). [ ]: non-standard residue; d: D form. The star is where a group is joined. ξ: configuration not given here. NMeAbu(3,3-F2-piperidino) = CN[C@@H](CCN1CCCC(F)(F)C1)C(=O)O; Ala(4-thiazolyl) = N[C@@H](Cc1cscn1)C(=O)O; NMeF = CN[C@@H](Cc1ccccc1)C(=O)O; NMeGABA = CN(CCCC(=O)[*:2])[*:1]; NMeβAla = CN(CCC(=O)[*:2])[*:1]; ξThr(3R) = C[C@@H](O)C(N)C(=O)O; NMeL = CN[C@@H](CC(C)C)C(=O)O; NMeV = CN[C@H](C(=O)O)C(C)C; NMeA = CN[C@@H](C)C(=O)O; Piperidide = C1CCN(*)CC1; NBuGly = CCCCNCC(=O)O; Sar = CNCC(=O)O; tBu = CC(C)(C)*

One series can be described thus: in vitro. Conditions: human, Caco-2, Caco-2.
One may read the Papp as a coefficient for how fast a substance crosses the barrier. High values mean ready permeation, low ones poor permeation. Take `CCCCN1CC(=O)N(C)[C@@H](CC(C)C)C(=O)N[C@@H](COC(C)(C)C)C(=O)N(C)[C@@H](Cc2ccccc2)C(=O)N(C)[C@@H](C(C)C)C(=O)N[C@H](C(=O)N2CCCCC2)CC(=O)N[C@H](C)C(=O)N(C)[C@@H](Cc2ccccc2)C(=O)N[C@@H](CC(C)C)C(=O)N(C)[C@@H](CCN2CCCC(F)(F)C2)C(=O)N[C@@H]([C@@H](C)O)C1=O` [pd386] ([dA][NMeF]L[NMeAbu(3,3-F2-piperidino)]T[NBuGly][NMeL]S(tBu)[NMeF][NMeV]D-Piperidide; lactam N-11): the Papp is 2.3 ×10⁻⁶ cm/s.
Still for that read-out and setting: under `CCCCN1CC(=O)N(C)[C@@H](C(C)C)C(=O)N[C@@H](CC(C)C)C(=O)N(C)[C@@H](Cc2ccccc2)C(=O)N(C)[C@@H](CCN2CCCC(F)(F)C2)C(=O)N[C@H](C(=O)N2CCCCC2)CC(=O)N[C@H](C)C(=O)N(C)[C@@H](Cc2ccccc2)C(=O)N[C@@H](CC(C)C)C(=O)N(C)[C@@H](CC(C)C)C(=O)N[C@@H]([C@@H](C)O)C1=O` [pd388] ([dA][NMeF]L[NMeL]T[NBuGly][NMeV]L[NMeF][NMeAbu(3,3-F2-piperidino)]D-Piperidide; lactam N-11) stands 1.9 ×10⁻⁶ cm/s; under `CC(C)C[C@@H]1NC(=O)[C@H](Cc2ccccc2)N(C)C(=O)[C@H](Cc2ccccc2)N(C)C(=O)[C@H](CC(C)C)NC(=O)[C@H](CC(C)C)N(C)C(=O)CCCN(C)C(=O)C[C@@H](C(=O)N2CCCCC2)NC(=O)[C@H](C)N(C)C(=O)[C@H](CCN2CCCC(F)(F)C2)N(C)C(=O)[C@H]([C@@H](C)O)NC(=O)[C@H](CC(C)C)N(C)C1=O` [pd390] ([NMeGABA][NMeL]L[NMeF][NMeF]L[NMeL]T[NMeAbu(3,3-F2-piperidino)][NMeA]D-Piperidide; lactam N-11), 2 ×10⁻⁶ cm/s.

The same series, now with this note: human, Caco-2, Caco-2 (cm/sec) Papp.
`CC(C)C[C@@H]1NC(=O)[C@H](Cc2ccccc2)N(C)C(=O)[C@H]([C@@H](C)O)NC(=O)[C@H](Cc2ccccc2)NC(=O)[C@H](Cc2ccccc2)N(C)C(=O)C[C@@H](C(=O)N2CCCCC2)NC(=O)[C@H](C)N(C)C(=O)[C@H](CC(C)C)N(C)C(=O)CN(C)C(=O)[C@H](CC(C)C)N(C)C(=O)[C@H](Cc2ccccc2)N(C)C1=O` [pd230] ([NMeF]FT[NMeF]L[NMeF][NMeL][Sar][NMeL][NMeA]D-Piperidide; lactam N-11) showed a Papp of 0.25 ×10⁻⁶ cm/s.
Still for that read-out and setting: under `CC(C)C[C@@H]1NC(=O)[C@H](Cc2ccccc2)N(C)C(=O)C([C@@H](C)O)NC(=O)[C@H](Cc2ccccc2)N(C)C(=O)CN(C)C(=O)[C@H](Cc2ccccc2)NC(=O)[C@H](CC(C)C)N(C)C(=O)[C@H](CC(C)C)NC(=O)[C@H](Cc2ccccc2)N(C)C(=O)[C@H](C)N(C)C(=O)C[C@@H](C(=O)N2CCCCC2)NC1=O` (stereo partly drawn) [pd231] ([NMeA][NMeF]L[NMeL]F[Sar][NMeF][ξThr(3R)][NMeF]LD-Piperidide; lactam N-11) stands 0.21 ×10⁻⁶ cm/s.
The same measure, in the same setting: to `CC(C)C[C@H]1C(=O)N(C)[C@@H](Cc2ccccc2)C(=O)N(C)[C@@H](Cc2ccccc2)C(=O)N[C@@H]([C@@H](C)O)C(=O)N(C)[C@@H](C)C(=O)N(C)[C@@H](Cc2ccccc2)C(=O)N[C@H](C(=O)N2CCCCC2)CC(=O)N(C)[C@@H](C)C(=O)N(C)[C@@H](CC(C)C)C(=O)N(C)[C@@H](Cc2ccccc2)C(=O)N[C@@H](C)C(=O)N1C` [pd232] ([NMeA][NMeL][NMeF]A[NMeL][NMeF][NMeF]T[NMeA][NMeF]D-Piperidide; lactam N-11) belongs 0.19 ×10⁻⁶ cm/s; to `CC(C)C[C@H]1C(=O)N(C)[C@@H](Cc2ccccc2)C(=O)N(C)[C@@H](Cc2ccccc2)C(=O)N[C@@H]([C@@H](C)O)C(=O)N(C)[C@@H](C)C(=O)N(C)[C@@H](Cc2ccccc2)C(=O)N[C@H](C(=O)N2CCCCC2)CC(=O)N(C)[C@@H](C)C(=O)N(C)[C@@H](Cc2ccccc2)C(=O)N(C)[C@@H](CC(C)C)C(=O)N[C@@H](C(C)C)C(=O)N1C` [pd233] ([NMeA][NMeF][NMeL]V[NMeL][NMeF][NMeF]T[NMeA][NMeF]D-Piperidide; lactam N-11), 0.17 ×10⁻⁶ cm/s; to `CC(C)C[C@@H]1NC(=O)[C@H](CC(C)C)N(C)C(=O)[C@@H](C)NC(=O)C[C@@H](C(=O)N2CCCCC2)NC(=O)[C@H](Cc2ccccc2)N(C)C(=O)[C@H](Cc2ccccc2)N(C)C(=O)[C@H](C)N(C)C(=O)[C@H]([C@@H](C)O)NC(=O)[C@H](Cc2ccccc2)N(C)C(=O)[C@H](COC(C)(C)C)NC(=O)[C@H](Cc2ccccc2)N(C)C1=O` [pd234] ([dA][NMeL]L[NMeF]S(tBu)[NMeF]T[NMeA][NMeF][NMeF]D-Piperidide; lactam N-11), 0.15 ×10⁻⁶ cm/s.
On the same count and under the same terms, under `CC(C)C[C@@H]1NC(=O)[C@H](CC(C)C)N(C)C(=O)[C@H](CC(C)C)N(C)C(=O)CNC(=O)[C@H](Cc2ccccc2)N(C)C(=O)[C@H](Cc2cscn2)NC(=O)[C@H](CC(C)C)N(C)C(=O)[C@H](Cc2ccccc2)NC(=O)[C@H](C)NC(=O)C[C@@H](C(=O)N(C)[C@@H](Cc2ccccc2)C(=O)N[C@@H](C)C(=O)N2CCCCC2)NC1=O` [pd235] (AF[NMeL][Ala(4-thiazolyl)][NMeF]G[NMeL][NMeL]LD[NMeF]A-Piperidide; lactam N-10) stands 0.1 ×10⁻⁶ cm/s; under `CC(C)C[C@H]1C(=O)N[C@@H](COC(C)(C)C)C(=O)N[C@@H]([C@@H](C)O)C(=O)N(C)[C@@H](Cc2ccccc2)C(=O)N[C@H](C(=O)N2CCCCC2)CC(=O)N[C@@H](C)C(=O)N(C)[C@@H](Cc2ccccc2)C(=O)N(C)[C@@H](C)C(=O)N(C)[C@@H](Cc2ccccc2)C(=O)N(C)[C@@H](CC(C)C)C(=O)N[C@@H](Cc2ccccc2)C(=O)N1C` [pd237] (A[NMeF][NMeA][NMeF][NMeL]F[NMeL]S(tBu)T[NMeF]D-Piperidide; lactam N-11), 0.089 ×10⁻⁶ cm/s; under `CC[C@H](C)[C@@H]1NC(=O)[C@H](Cc2ccccc2)N(C)C(=O)[C@H](C)N(C)C(=O)[C@H](CC(C)C)N(C)C(=O)[C@H](Cc2ccccc2)N(C)C(=O)CCN(C)C(=O)C[C@@H](C(=O)N(C)[C@@H](Cc2ccccc2)C(=O)N(C)[C@@H](Cc2ccccc2)C(=O)N[C@@H](C)C(=O)N2CCCCC2)NC(=O)[C@H]([C@@H](C)O)NC(=O)[C@H](CC(C)C)N(C)C(=O)[C@H](CC(C)C)N(C)C1=O` [pd239] ([NMeβAla][NMeF][NMeL][NMeA][NMeF]I[NMeL][NMeL]TD[NMeF][NMeF]A-Piperidide; lactam N-10), 0.065 ×10⁻⁶ cm/s.
With `CC[C@H](C)[C@@H]1NC(=O)[C@H](Cc2ccccc2)N(C)C(=O)[C@H](C)N(C)C(=O)C[C@@H](C(=O)N(C)[C@@H](Cc2ccccc2)C(=O)N(C)[C@@H](Cc2ccccc2)C(=O)N[C@@H](C)C(=O)N2CCCCC2)NC(=O)[C@H](CC(C)C)N(C)C(=O)[C@H](Cc2ccccc2)N(C)C(=O)[C@H]([C@@H](C)O)NC(=O)[C@H](CC(C)C)N(C)C(=O)[C@H](CC(C)C)N(C)C(=O)[C@H](C)N(C)C1=O` [pd240] ([NMeA][NMeF]I[NMeA][NMeL][NMeL]T[NMeF][NMeL]D[NMeF][NMeF]A-Piperidide; lactam N-10), the Papp was found to be 0.06 ×10⁻⁶ cm/s.
Same read-out and setting: to `CC(C)C[C@H]1C(=O)N(C)[C@@H](Cc2ccccc2)C(=O)N(C)[C@@H](CC(C)C)C(=O)N[C@H](C(=O)N(C)[C@@H](Cc2ccccc2)C(=O)N[C@@H](Cc2ccccc2)C(=O)N2CCCCC2)CC(=O)N[C@H](C(C)C)C(=O)N[C@@H](C)C(=O)N[C@@H]([C@@H](C)O)C(=O)N(C)[C@@H](C)C(=O)N[C@@H](Cc2ccccc2)C(=O)N1C` [pd241] ([dV]AT[NMeA]F[NMeL][NMeF][NMeL]D[NMeF]F-Piperidide; lactam N-9) belongs 0.058 ×10⁻⁶ cm/s.
Same read-out and setting: to `CC[C@H](C)[C@@H]1NC(=O)[C@H](Cc2ccccc2)N(C)C(=O)[C@H]([C@@H](C)O)NC(=O)[C@@H](C)NC(=O)C[C@@H](C(=O)N(C)[C@@H](Cc2ccccc2)C(=O)N(C)[C@@H](Cc2ccccc2)C(=O)N[C@@H](C)C(=O)N2CCCCC2)NC(=O)[C@H](CC(C)C)N(C)C(=O)[C@H](CC(C)C)N(C)C(=O)[C@H](Cc2ccccc2)N(C)C(=O)[C@H](CC(C)C)N(C)C(=O)[C@H](C)N(C)C1=O` [pd242] ([dA]T[NMeF]I[NMeA][NMeL][NMeF][NMeL][NMeL]D[NMeF][NMeF]A-Piperidide; lactam N-10) belongs 0.058 ×10⁻⁶ cm/s; to `CC(C)C[C@@H]1NC(=O)[C@H](Cc2ccccc2)N(C)C(=O)[C@H](COC(C)(C)C)NC(=O)[C@H](Cc2ccccc2)N(C)C(=O)[C@H](Cc2ccccc2)N(C)C(=O)[C@H](CC(C)C)N(C)C(=O)[C@@H](CC(C)C)NC(=O)C[C@@H](C(=O)N2CCCCC2)NC(=O)[C@H](Cc2ccccc2)N(C)C(=O)[C@H]([C@@H](C)O)NC(=O)[C@H](CC(C)C)N(C)C1=O` [pd243] ([dL][NMeL][NMeF][NMeF]S(tBu)[NMeF]L[NMeL]T[NMeF]D-Piperidide; lactam N-11), 0.057 ×10⁻⁶ cm/s.
On to `CC(C)C[C@@H]1NC(=O)[C@H](Cc2ccccc2)N(C)C(=O)[C@H](CC(C)C)N(C)C(=O)[C@H](Cc2ccccc2)NC(=O)[C@H](C)NC(=O)C[C@@H](C(=O)N2CCCCC2)NC(=O)[C@H](Cc2ccccc2)N(C)C(=O)CN(C)C(=O)[C@H](Cc2ccccc2)NC(=O)[C@H](CC(C)C)N(C)C(=O)[C@H]([C@@H](C)O)NC1=O` [pd244] (AF[NMeL][NMeF]LT[NMeL]F[Sar][NMeF]D-Piperidide; lactam N-11), for which the Papp worked out at 0.045 ×10⁻⁶ cm/s.
Still for that read-out and setting: to `CC(C)C[C@@H]1NC(=O)[C@H]([C@@H](C)O)NC(=O)[C@H](CC(C)C)N(C)C(=O)C[C@@H](C(=O)N2CCCCC2)NC(=O)[C@H](COC(C)(C)C)NC(=O)[C@H](Cc2ccccc2)NC(=O)[C@H](C)N(C)C(=O)[C@H](Cc2ccccc2)NC(=O)CN(C)C(=O)[C@H](Cc2ccccc2)N(C)C(=O)[C@H](Cc2ccccc2)N(C)C1=O` [pd245] ([NMeL]TL[NMeF][NMeF][Sar]F[NMeA]FS(tBu)D-Piperidide; lactam N-11) belongs 0.019 ×10⁻⁶ cm/s; to `CC(C)C[C@H]1C(=O)NCC(=O)N[C@H](C(=O)N(C)[C@@H](Cc2ccccc2)C(=O)N(C)[C@@H](Cc2ccccc2)C(=O)N[C@@H](C)C(=O)N2CCCCC2)CC(=O)N[C@@H](C)C(=O)N[C@@H]([C@@H](C)O)C(=O)N(C)[C@@H](C)C(=O)N(C)[C@@H](Cc2ccccc2)C(=O)N[C@@H](C(C)C)C(=O)N(C)[C@@H](Cc2ccccc2)C(=O)N1C` [pd247] (AT[NMeA][NMeF]V[NMeF][NMeL]GD[NMeF][NMeF]A-Piperidide; lactam N-9), 0.087 ×10⁻⁶ cm/s.

The record behind these values is US20230096766A1, “AMINO ACID HAVING FUNCTIONAL GROUP CAPABLE OF INTERMOLECULAR HYDROGEN BONDING, PEPTIDE COMPOUND CONTAINING SAME AND METHOD FOR PRODUCTION THEREOF” (Chugai Seiyaku Kabushiki Kaisha, priority 2018, published 2023).
